Measured values reported in patent US8629168B2, “Benzoxazoles and oxazolopyridines being useful as janus kinases inhibitors” (priority 2006, dated 2014).
pIC50: −log10 of the molar value.

Biological target: T1, GST-JAK2(808-1132) (Homo sapiens, UniProt O60674)
T1 construct: GST-JAK2(808-1132) is purchased from Invitrogen; purchased Invitrogen (Carlsbad, USA) #4288
Test: EPK JAK/TYK-kinase family profiling assay (Caliper mobility shift), JAK2
Format: biochemical
Details: Caliper mobility shift assay of Example 187, 20 μM ATP, read-out: IC50 with Test in present Example
Source text: All four kinases of the JAK/TYK-kinase family are used as purified recombinant GST-fusion proteins, containing the active kinase domains. GST-JAK1(866-1154), GST-JAK3(811-1124), and GST-TYK2(888-1187) are expressed and purified by affinity chromatography. GST-JAK2(808-1132) is purchased from Invitrogen (Carlsbad, USA, #4288).
The kinase assays are based on the Caliper mobility shift assay using the LabChip 3000 systems. This technology is similar to capillary electrophoresis and uses charge driven separation of substrate and product in a microfluidic chip.
All kinase reactions are performed in 384 well microtiter plates in a total reaction volume of 18 μl. The assay plates are prepared with 0.1 μl per well of test compound in the appropriate test concentration, as described under the section “preparation of compound dilutions”. The reactions are started by combining 9 μl of substrate mix (consisting of peptide and ATP) with 9 μl of kinase dilution. The reactions are incubated for 60 minutes at 30° C. and stopped by adding 70 μl of stop buffer (100 mM Hepes, 5% DMSO, 0.1% Coating reagent, 10 mM EDTA, 0.015% Brij 35).
Fluorescently labeled synthetic peptides are used as substrates in all reactions. […] Specific assay conditions are described in Table 1:
The terminated reactions are transferred to a Caliper LabChip 3000 reader (Caliper Life Sciences, Mountain View, Calif., USA) and the turnover of each reaction is measured by determining the substrate/product ratio.
Test compounds are dissolved in DMSO (10 mM) and transferred into 1.4 mL flat bottom or V-shaped Matrix tubes carrying a unique 2D matrix chip by individual compound hubs. The numbers of these chips are distinctively linked to the individual compound identification numbers. The stock solutions are stored at −20° C. if not used immediately. For the test procedure the vials are defrosted and identified by a scanner whereby a working sheet is generated that guides the subsequent working steps.
Compound dilutions are made in 96 well plates. This format enabled the assay of maximally 40 individual test compounds at 8 concentrations (single points) including 4 reference compounds. The dilution protocol includes the production of pre-dilution plates, master plates and assay plates:
Pre-dilution plates: 96 polypropylene well plates are used as pre-dilution plates. A total of 4 pre-dilution plates are prepared including 10 test compounds each on the plate positions A1-A10, one standard compound at A11 and one DMSO control at A12. All dilution steps are done on a Hamilton STAR robot (Hamilton, Co., Reno, Nev., USA).
Master plates: 100 μL of individual compound dilutions including standard compound and controls of the 4 “pre-dilution plates” are transferred into a 384 “master plate” including the following concentrations 1,820, […], 182, 54.6, 18.2, 5.46, 1.82 and 0.546 μM, respectively in 90% of DMSO.
Assay plates: Identical assay plates are then prepared by pipetting 100 nL each of compound dilutions of the master plates into 384-well “assay plates”. In the following the compounds are mixed with 9 μL of assays components plus 9 μL enzyme corresponding to a 1:181 dilution steps enabling the final concentration of 10, 3.0, 1.0, 0.3, 0.1, 0.03, 0.01 and 0.003 μM, respectively. The preparation of the master plates are handled by the Matrix PlateMate Plus robot (Thermo Fisher Scientific, Handforth, Cheshire, United Kingdom) and replication of assay plates by the HummingBird robot (Genomic Solutions, Inc., Ann Arbor, Mich., USA).

T1 sequence (O60674 808-1132): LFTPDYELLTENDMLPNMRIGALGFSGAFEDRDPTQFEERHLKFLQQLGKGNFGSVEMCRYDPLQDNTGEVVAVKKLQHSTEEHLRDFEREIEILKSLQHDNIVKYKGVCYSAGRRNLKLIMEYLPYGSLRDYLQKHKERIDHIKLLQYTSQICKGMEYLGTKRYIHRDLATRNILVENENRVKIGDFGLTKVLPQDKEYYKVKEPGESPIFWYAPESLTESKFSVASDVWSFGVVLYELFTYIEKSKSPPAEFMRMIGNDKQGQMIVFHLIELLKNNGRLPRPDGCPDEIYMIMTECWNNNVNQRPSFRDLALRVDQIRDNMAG

| SMILES | pIC50 |
| --- | --- |
| CN1CCN(c2ccc(Nc3nc4cccc(-c5ccc(CN6CCS(=O)(=O)CC6)cc5)c4o3)cc2)CC1 [Example 89, {7-[4-(1,1-Dioxo-1lambda*6*-thiomorpholin-4-ylmethyl)-phenyl]-benzooxazol-2-yl}-[4-(4-methyl-piperazin-1-yl)-phenyl]-amine] | 7.22 |
| CN1CCN(c2ccc(Nc3nc4cccc(-c5ccc(C(=O)N6CCOCC6)c(F)c5)c4o3)cc2C#N)CC1 [Example 90, 5-{7-[3-Fluoro-4-(morpholine-4-caronyl)-phenyl]-benzooxazol-2-ylamino}-2-(4-methyl-piperazin-1-yl)-benzonitrile] | 7.25 |
| O=C(c1ccc(-c2cccc3nc(Nc4ccc(N5CCNCC5)cc4)oc23)cc1F)N1CCOCC1 [Example 91, {2-Fluoro-4-[2-(4-piperazin-1-yl-phenylamino)-benzooxazol-7-yl]-phenyl}-morpholin-4-yl-methanone] | 7.19 |
| CCN1CCN(c2ccc(Nc3nc4cccc(-c5ccc(S(C)(=O)=O)cc5)c4o3)cc2C)CC1 [Example 92, [4-(4-Ethyl-piperazin-1-yl)-3-methyl-phenyl]-[7-(4-methanesulfonyl-phenyl)-benzooxazol-2-yl]-amine] | 8.00 |
| CN1CCN(c2ccc(Nc3nc4cccc(-c5ccc(S(N)(=O)=O)cc5)c4o3)cc2)CC1 [Example 93, 4-{2-[4-(4-Methyl-piperazin-1-yl)-phenylamino]-benzooxazol-7-yl}-benzenesulfonamide] | 7.28 |
| CCN1CCN(c2ccc(Nc3nc4cccc(-c5ccc(C(=O)N6CCOCC6)c(F)c5)c4o3)cc2C)CC1 [Example 94, (4-{2-[4-(4-Ethyl-piperazin-1-yl)-3-methyl-phenylamino]-benzooxazol-7-yl}-2-fluoro-phenyl)-morpholin-4-yl-methanone] | 8.16 |
| CN1CCN(c2ccc(Nc3nc4cccc(-c5cc(F)c(CN6CCS(=O)(=O)CC6)c(F)c5)c4o3)cc2)CC1 [Example 95, {7-[4-(1,1-Dioxo-1lambda*6*-thiomorpholin-4-ylmethyl)-3,5-difluoro-phenyl]-benzooxazol-2-yl}-[4-(4-methyl-piperazin-1-yl)-phenyl]-amine] | 8.16 |
| Cc1cc(Nc2nc3cccc(-c4cc(F)c(CN5CCS(=O)(=O)CC5)c(F)c4)c3o2)ccc1C(=O)N1CCCC1 [Example 96, (4-{7-[4-(1,1-Dioxo-1lambda*6*-thiomorpholin-4-ylmethyl)-3,5-difluoro-phenyl]-benzooxazol-2-ylamino}-2-methyl-phenyl)-pyrrolidin-1-yl-methanone] | 8.36 |
| Cc1cc(-c2cccc3nc(Nc4ccc(N5CCN(C6CC6)CC5)cc4)oc23)ccc1C(=O)N1CCOCC1 [Example 97, (4-{2-[4-(4-Cyclopropyl-piperazin-1-yl)-phenylamino]-benzooxazol-7-yl}-2-methyl-phenyl)-morpholin-4-yl-methanone] | 7.67 |
| CCN1CCN(c2ccc(Nc3nc4cccc(-c5cc(F)c(CN6CCOCC6)c(F)c5)c4o3)cc2C)CC1 [Example 98, [7-(3,5-Difluoro-4-morpholin-4-ylmethyl-phenyl)-benzooxazol-2-yl]-[4-(4-ethyl-piperazin-1-yl)-3-methyl-phenyl]-amine] | 8.28 |
| Cc1cc(Nc2nc3cccc(-c4cc(F)c(CN5CCOCC5)c(F)c4)c3o2)ccc1C(=O)N1CCCC1 [Example 99, {4-[7-(3,5-Difluoro-4-morpholin-4-ylmethyl-phenyl)-benzooxazol-2-ylamino]-2-methyl-phenyl}-pyrrolidin-1-yl-methanone] | 7.72 |
| Cc1cc(Nc2nc3cccc(-c4ccc(S(C)(=O)=O)cc4)c3o2)ccc1N1CCN(CCN(C)C)CC1 [Example 100, {4-[4-(2-Dimethylamino-ethyl)-piperazin-1-yl]-3-methyl-phenyl}-[7-(4-methanesulfonyl-phenyl)-benzooxazol-2-yl]-amine] | 7.78 |
| Cc1cc(Nc2nc3cccc(-c4cc(F)c(CN5CCS(=O)(=O)CC5)c(F)c4)c3o2)ccc1N1CCN(C(C)C)CC1 [Example 101, {7-[4-(1,1-Dioxo-1lambda*6*-thiomorpholin-4-ylmethyl)-3,5-difluoro-phenyl]-benzooxazol-2-yl}-[4-(4-isopropyl-piperazin-1-yl)-3-methyl-phenyl]-amine] | 8.44 |
| Cc1cc(-c2cccc3nc(Nc4ccc(N5CCN(CCN(C)C)CC5)c(C)c4)oc23)ccc1C(=O)N1CCOCC1 [Example 102, [4-(2-{4-[4-(2-Dimethylamino-ethyl)-piperazin-1-yl]-3-methyl-phenylamino}-benzooxazol-7-yl)-2-methyl-phenyl]-morpholin-4-yl-methanone] | 8.25 |
| CCN(CC)C(=O)c1ccc(Nc2nc3cccc(-c4cc(F)c(CN5CCOCC5)c(F)c4)c3o2)cc1C [Example 103, 4-[7-(3,5-Difluoro-4-morpholin-4-ylmethyl-phenyl)-benzooxazol-2-ylamino]-N,N-diethyl-2-methyl-benzamide] | 7.85 |
| CCN1CCN(C(=O)c2ccc(Nc3nc4cccc(-c5cc(F)c(CN6CCOCC6)c(F)c5)c4o3)cc2C)CC1 [Example 104, {4-[7-(3,5-Difluoro-4-morpholin-4-ylmethyl-phenyl)-benzooxazol-2-ylamino]-2-methyl-phenyl}-(4-ethyl-piperazin-1-yl)-methanone] | 7.82 |
| Cc1cc(Nc2nc3cccc(-c4ccc(S(C)(=O)=O)cc4)c3o2)ccc1N1CCN(C(C)C)CC1 [Example 105, [4-(4-Isopropyl-piperazin-1-yl)-3-methyl-phenyl]-[7-(4-methanesulfonyl-phenyl)-benzooxazol-2-yl]-amine] | 7.70 |
| Cc1cc(-c2cccc3nc(Nc4ccc(N5CCN(C(C)C)CC5)c(C)c4)oc23)ccc1C(=O)N1CCOCC1 [Example 106, (4-{2-[4-(4-Isopropyl-piperazin-1-yl)-3-methyl-phenylamino]-benzooxazol-7-yl}-2-methyl-phenyl)-morpholin-4-yl-methanone] | 8.21 |
| Cc1cc(Nc2nc3cccc(-c4cc(F)c(CN5CCS(=O)(=O)CC5)c(F)c4)c3o2)ccc1N1CCN(CCN(C)C)CC1 [Example 107, {4-[4-(2-Dimethylamino-ethyl)-piperazin-1-yl]-3-methyl-phenyl}-{7-[4-(1,1-dioxo-1lambda*6*-thiomorpholin-4-ylmethyl)-3,5-difluoro-phenyl]-benzooxazol-2-yl}-amine] | 8.37 |
| COCCN1CCN(c2ccc(Nc3nc4cccc(-c5cc(F)c(CN6CCS(=O)(=O)CC6)c(F)c5)c4o3)cc2C)CC1 [Example 108, {7-[4-(1,1-Dioxo-1lambda*6*-thiomorpholin-4-ylmethyl)-3,5-difluoro-phenyl]-benzooxazol-2-yl}-{4-[4-(2-methoxy-ethyl)-piperazin-1-yl]-3-methyl-phenyl}-amine] | 7.99 |
| CCN1CCN(c2ccc(Nc3nc4cccc(-c5cc(F)c(C(=O)N6CCOCC6)c(F)c5)c4o3)cc2C)CC1 [Example 109, (4-{2-[4-(4-Ethyl-piperazin-1-yl)-3-methyl-phenylamino]-benzooxazol-7-yl}-2,6-difluoro-phenyl)-morpholin-4-yl-methanone] | 7.96 |
| Cc1cc(-c2cccc3nc(Nc4ccc(C(=O)N5CCCC5)c(C)c4)oc23)ccc1CN1CCOCC1 [Example 110, {2-Methyl-4-[7-(3-methyl-4-morpholin-4-ylmethyl-phenyl)-benzooxazol-2-ylamino]-phenyl}-pyrrolidin-1-yl-methanone] | 7.06 |
| CCN1CCN(c2ccc(Nc3nc4cccc(-c5ccc(C(C)(C)C(=O)N6CCOCC6)cc5)c4o3)cc2C)CC1 [Example 111, 2-(4-{2-[4-(4-Ethyl-piperazin-1-yl)-3-methyl-phenylamino]-benzooxazol-7-yl}-phenyl)-2-methyl-1-morpholin-4-yl-propan-1-one] | 7.78 |
| CCN1CCN(c2ccc(Nc3nc4cccc(-c5ccc(S(N)(=O)=O)cc5)c4o3)cc2C)CC1 [Example 112, 4-{2-[4-(4-Ethyl-piperazin-1-yl)-3-methyl-phenylamino]-benzooxazol-7-yl}-benzenesulfonamide] | 7.76 |
